# Measured values reported in patent publication US9254274B2, “Method of treating Tourette'S disorder with GABA-aminotransferase inactivators” (CATALYST PHARMACEUTICAL PARTNERS, priority 2012, dated 2016).
# Entries after “also recorded” stand apart in the source; their conditions may differ.
# Tests used:
# GABAA receptor = assay: [^3H]muscimol competition binding, rat brain synaptic membranes
# Procedure: On the day of the assay, the membrane preparation was quickly thawed, suspended in 40 volumes of ice-cold 50 mM Tris-HCl buffer (pH 7.4) using an UltraTurrax homogenizer and centrifuged at 48,000 g for 10 min at 4° C. This washing step was repeated four times. The final pellet was resuspended in incubation buffer and the binding assay carried out as detailed below.
# human ρ1 GABAC receptors = molecular target: T1, human ρ1 GABAC receptors (Homo sapiens, UniProt P24046); assay: Activity at recombinant GABAC receptors expressed in oocytes; format: cell-based; settings: 100 μM, hydrochloride salt
# T1 construct: expressed in transfected cells; host or cells: Xenopus laevis oocytes
# hBGT-1 = molecular target: T2, hBGT-1 (Homo sapiens, UniProt P48065); assay: [^3H]GABA uptake assay at human GABA transporters, tsA201 cells; format: cell-based; settings: mammalian cells recombinantly expressing hBGT-1
# T2 construct: expressed in transfected cells; host or cells: tsA201 cells (transient, PolyFect)
# T2 sequence (P48065 1-614): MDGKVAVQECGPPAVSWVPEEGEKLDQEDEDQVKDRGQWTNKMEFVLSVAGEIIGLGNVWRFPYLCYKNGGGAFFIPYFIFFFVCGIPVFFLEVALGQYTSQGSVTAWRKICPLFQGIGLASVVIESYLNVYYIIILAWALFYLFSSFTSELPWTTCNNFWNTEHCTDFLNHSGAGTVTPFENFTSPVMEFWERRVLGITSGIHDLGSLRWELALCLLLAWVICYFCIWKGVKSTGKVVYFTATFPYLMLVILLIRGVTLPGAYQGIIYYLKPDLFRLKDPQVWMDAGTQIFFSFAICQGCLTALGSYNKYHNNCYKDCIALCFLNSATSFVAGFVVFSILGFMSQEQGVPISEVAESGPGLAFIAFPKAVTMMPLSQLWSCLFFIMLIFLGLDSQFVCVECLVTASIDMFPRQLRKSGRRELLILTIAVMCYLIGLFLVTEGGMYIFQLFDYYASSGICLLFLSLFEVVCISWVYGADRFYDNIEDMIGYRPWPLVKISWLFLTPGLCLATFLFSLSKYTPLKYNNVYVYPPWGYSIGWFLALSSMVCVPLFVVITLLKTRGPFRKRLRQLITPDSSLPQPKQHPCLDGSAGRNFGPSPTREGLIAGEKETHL
# Procedure: (§1) tsA201 cells were cultured in GlutaMAX-I DMEM supplemented with 10% fetal bovine serum, penicillin (100 U/ml), and streptomycin (100 μg/ml) at 37° C. in a humidified atmosphere of 95% air and 5% CO2. […] Quantification was performed by using Microscint™ 20 scintillation fluid (Perkin Elmer) and a Packard TopCount microplate scintillation counter.
# hGAT-1 = molecular target: T3, hGAT-1 (Homo sapiens, UniProt P30531); assay: as above; format: cell-based; settings: mammalian cells recombinantly expressing hGAT-1
# T3 construct: expressed in transfected cells; host or cells: tsA201 cells (transient, PolyFect)
# Procedure: as §1
# hGAT-2 = molecular target: T4, hGAT-2 (Homo sapiens, UniProt Q9NSD5); assay: as above; format: cell-based; settings: mammalian cells recombinantly expressing hGAT-2
# T4 construct: expressed in transfected cells; host or cells: tsA201 cells (transient, PolyFect)
# T4 sequence (Q9NSD5 1-602): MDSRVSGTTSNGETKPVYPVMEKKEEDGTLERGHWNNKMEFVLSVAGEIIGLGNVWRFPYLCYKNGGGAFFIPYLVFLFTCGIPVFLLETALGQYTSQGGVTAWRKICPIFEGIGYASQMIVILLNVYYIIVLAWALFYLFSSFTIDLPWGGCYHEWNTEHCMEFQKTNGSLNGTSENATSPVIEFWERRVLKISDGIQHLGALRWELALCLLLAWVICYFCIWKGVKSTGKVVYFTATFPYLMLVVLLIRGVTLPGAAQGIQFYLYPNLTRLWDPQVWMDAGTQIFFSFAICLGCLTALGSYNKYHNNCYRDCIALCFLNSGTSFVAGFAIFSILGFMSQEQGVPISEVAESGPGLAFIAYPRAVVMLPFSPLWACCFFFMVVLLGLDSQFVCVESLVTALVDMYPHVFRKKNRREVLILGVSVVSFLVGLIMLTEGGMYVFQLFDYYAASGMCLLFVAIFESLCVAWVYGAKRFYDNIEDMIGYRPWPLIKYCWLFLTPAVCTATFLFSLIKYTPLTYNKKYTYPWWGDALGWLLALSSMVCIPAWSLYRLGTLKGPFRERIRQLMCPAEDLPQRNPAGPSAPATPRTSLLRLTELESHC
# Procedure: as §1
# hGAT-3 = molecular target: T5, hGAT-3 (Homo sapiens, UniProt P48066); assay: as above; format: cell-based; settings: mammalian cells recombinantly expressing hGAT-3
# T5 construct: expressed in transfected cells; host or cells: tsA201 cells (transient, PolyFect)
# T5 sequence (P48066 1-632): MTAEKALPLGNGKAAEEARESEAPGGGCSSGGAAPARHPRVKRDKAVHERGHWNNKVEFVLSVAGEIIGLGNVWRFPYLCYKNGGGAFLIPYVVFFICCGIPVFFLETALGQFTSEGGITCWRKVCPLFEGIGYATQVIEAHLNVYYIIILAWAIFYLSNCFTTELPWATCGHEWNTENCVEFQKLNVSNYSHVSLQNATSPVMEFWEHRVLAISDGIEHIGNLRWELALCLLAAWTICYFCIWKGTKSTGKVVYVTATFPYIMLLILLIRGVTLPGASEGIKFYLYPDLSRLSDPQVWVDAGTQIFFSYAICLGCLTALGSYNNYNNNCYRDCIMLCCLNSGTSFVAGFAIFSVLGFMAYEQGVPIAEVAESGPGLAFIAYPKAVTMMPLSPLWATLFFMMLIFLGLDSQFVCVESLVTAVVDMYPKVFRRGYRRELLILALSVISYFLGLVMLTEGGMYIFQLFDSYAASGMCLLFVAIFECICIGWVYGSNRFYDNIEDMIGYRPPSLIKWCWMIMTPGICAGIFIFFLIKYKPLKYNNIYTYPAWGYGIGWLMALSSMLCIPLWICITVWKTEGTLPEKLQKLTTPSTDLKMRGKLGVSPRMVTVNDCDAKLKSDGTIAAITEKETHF
# Procedure: as §1
# cortical neurons = assay: [^3H]GABA uptake in cultured cortical neurons; format: cell-based, mouse
# Procedure: (§2) Cortical neurons were cultured essentially as previously described by removing the neopallium of 15-day old NMRI embryos by dissection followed by mild trypsination (Hertz E, Yu A C H, Hertz L, Juurlink B H J and Schousboe A. Preparation of Primary Cultures of Mouse Cortical Neurons, in A Dissection and Tissue Culture Manual of the Nervous System (Shahar A, de Vellis J, Vernadakis A and Haber B eds) pp 183-186, Alan R. Liss, Inc., New York, […]). The neurons were cultured in 10% fetal calf serum and, after 48 h, cytosine arabinoside was added to a final concentration of 20 μM to prevent glial proliferation. […] The stable cell lines are under the selection pressure of blasticidin-S at 5 μg/mL. […] Radioactivity was measured using Microscint™ 20 scintillation fluid (PerkinElmer) and a Packard TopCount microplate scintillation counter.
# cortical astrocytes = assay: [^3H]GABA uptake in cultured cortical astrocytes; format: cell-based, mouse
# Procedure: Cortical astrocytes were cultured essentially as previously described (Hertz L, Juurlink B H J, Hertz E, Fosmark H and Schousboe A, Preparation of Primary Cultures of Mouse (Rat) Astrocytes, in A Dissection and Tissue Culture Manual of the Nervous System (Shahar A, de Vellis J, Vernadakis A and Haber B eds) pp 105-108, Alan R. Liss, Inc., New York, 1989). The neopallium was removed from new born NMRI mice (Taconic, Denmark) and passed through an 80 μm nylon sieve and cultured in modified Dulbecco's modified Eagle's medium with fetal calf serum. The calf serum was lowered from 20% to 10% over three weeks, and finally the astrocytes were allowed to differentiate using 0.25 mM dibutyryl cyclic AMP during the last week of growth.
# Cortical neurons were cultured essentially as previously described by removing the neopallium of 15-day old NMRI embryos by dissection followed by mild trypsination (Hertz E, Yu A C H, Hertz L, Juurlink B H J and Schousboe A. Preparation of Primary Cultures of Mouse Cortical Neurons, in A Dissection and Tissue Culture Manual of the Nervous System (Shahar A, de Vellis J, Vernadakis A and Haber B eds) pp 183-186, Alan R. Liss, Inc., New York, 198). […] Radioactivity was measured using Microscint™ 20 scintillation fluid (PerkinElmer) and a Packard TopCount microplate scintillation counter.
# reuptake of GABA = assay: GABA reuptake, general statement; format: cell-based
# Procedure: as §1, §2
# GABAB receptor [1] = molecular target: T6, GABAB receptor (Rattus norvegicus, UniProt Q9Z0U4); settings: 100 μM, rat brain cortical homogenate; hydrochloride salt
# GABAB receptor [2] = molecular target: T6, GABAB receptor; assay: biochemical
# T6 sequence (Q9Z0U4 17-960 limits assumed): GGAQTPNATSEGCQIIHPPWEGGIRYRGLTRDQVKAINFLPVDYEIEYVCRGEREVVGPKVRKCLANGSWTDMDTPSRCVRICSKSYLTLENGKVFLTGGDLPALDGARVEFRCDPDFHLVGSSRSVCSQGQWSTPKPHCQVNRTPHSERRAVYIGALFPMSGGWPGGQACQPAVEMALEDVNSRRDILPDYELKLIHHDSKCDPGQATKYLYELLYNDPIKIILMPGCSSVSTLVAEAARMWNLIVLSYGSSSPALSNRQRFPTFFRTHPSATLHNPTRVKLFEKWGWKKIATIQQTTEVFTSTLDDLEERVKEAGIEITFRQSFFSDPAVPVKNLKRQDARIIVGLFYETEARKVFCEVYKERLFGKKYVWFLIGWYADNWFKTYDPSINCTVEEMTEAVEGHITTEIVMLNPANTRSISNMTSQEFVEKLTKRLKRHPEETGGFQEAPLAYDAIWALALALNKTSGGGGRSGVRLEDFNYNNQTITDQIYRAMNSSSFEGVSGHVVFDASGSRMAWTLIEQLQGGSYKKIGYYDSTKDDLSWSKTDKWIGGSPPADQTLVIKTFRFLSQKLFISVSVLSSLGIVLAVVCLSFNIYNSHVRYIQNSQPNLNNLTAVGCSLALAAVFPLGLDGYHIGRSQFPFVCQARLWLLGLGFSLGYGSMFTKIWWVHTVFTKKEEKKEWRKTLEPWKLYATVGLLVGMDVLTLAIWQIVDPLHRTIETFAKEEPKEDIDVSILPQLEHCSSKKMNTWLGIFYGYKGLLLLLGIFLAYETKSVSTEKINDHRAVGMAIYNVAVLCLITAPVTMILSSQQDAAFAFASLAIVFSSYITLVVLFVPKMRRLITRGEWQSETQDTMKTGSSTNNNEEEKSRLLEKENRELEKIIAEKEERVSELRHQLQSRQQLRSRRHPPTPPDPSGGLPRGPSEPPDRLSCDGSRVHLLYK
# T6 sequence (O88871 41-940 partner): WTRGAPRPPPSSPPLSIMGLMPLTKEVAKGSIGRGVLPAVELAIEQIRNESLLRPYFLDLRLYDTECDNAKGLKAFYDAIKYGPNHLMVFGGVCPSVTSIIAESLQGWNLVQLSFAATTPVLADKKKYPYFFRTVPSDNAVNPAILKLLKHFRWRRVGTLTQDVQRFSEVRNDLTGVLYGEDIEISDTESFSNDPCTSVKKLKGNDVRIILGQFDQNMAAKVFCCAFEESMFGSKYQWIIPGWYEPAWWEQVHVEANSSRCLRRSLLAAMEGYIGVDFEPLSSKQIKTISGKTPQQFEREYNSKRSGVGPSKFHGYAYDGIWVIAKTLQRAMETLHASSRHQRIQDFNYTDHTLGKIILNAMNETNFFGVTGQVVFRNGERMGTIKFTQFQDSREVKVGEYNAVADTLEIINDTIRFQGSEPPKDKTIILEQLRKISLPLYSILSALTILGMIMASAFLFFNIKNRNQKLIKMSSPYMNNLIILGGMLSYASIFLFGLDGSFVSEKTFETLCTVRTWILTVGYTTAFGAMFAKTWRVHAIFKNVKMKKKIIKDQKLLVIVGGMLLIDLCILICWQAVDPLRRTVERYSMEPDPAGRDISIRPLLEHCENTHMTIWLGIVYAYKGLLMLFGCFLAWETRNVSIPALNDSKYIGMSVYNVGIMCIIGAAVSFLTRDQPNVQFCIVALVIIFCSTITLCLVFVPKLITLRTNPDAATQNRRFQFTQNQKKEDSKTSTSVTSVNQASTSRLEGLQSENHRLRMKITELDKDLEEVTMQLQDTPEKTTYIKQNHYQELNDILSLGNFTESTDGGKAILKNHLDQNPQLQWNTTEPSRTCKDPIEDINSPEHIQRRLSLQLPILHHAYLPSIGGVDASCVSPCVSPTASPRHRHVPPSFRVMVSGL
# T1 sequence (P24046 22-479): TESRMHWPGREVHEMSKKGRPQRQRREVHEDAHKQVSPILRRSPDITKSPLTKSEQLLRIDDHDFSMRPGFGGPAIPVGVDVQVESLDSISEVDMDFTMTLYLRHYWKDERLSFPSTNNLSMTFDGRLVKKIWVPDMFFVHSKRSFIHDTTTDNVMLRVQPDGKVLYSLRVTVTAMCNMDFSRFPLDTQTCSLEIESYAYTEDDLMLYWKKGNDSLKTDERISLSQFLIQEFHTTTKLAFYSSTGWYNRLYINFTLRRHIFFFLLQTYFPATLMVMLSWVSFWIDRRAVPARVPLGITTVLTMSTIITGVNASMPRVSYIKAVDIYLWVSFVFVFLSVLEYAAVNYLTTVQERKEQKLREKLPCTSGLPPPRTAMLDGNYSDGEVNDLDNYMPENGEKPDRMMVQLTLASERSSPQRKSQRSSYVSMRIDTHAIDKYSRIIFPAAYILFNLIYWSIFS
# T3 sequence (P30531 whole entry): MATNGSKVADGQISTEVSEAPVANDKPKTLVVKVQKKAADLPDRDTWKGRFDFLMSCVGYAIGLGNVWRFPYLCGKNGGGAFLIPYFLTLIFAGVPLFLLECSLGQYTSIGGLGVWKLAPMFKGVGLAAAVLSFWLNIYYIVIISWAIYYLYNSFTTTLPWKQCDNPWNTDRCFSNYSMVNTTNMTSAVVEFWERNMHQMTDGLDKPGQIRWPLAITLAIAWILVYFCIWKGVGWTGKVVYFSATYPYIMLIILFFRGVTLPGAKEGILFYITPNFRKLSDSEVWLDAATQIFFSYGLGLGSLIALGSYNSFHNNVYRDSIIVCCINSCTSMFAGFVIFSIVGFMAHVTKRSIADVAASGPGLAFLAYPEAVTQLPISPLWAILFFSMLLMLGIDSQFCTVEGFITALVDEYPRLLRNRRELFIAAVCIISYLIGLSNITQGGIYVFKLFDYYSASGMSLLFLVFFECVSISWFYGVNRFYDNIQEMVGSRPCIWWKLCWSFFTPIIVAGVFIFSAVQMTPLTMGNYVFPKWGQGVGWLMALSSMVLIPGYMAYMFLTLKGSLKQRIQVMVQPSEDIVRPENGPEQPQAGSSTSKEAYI
Compound,"inhibition of radioligand binding at GABAA receptors (GABAA receptor; 100 μM, rat brain cortical homogenate, hydrochloride salt)",agonist or antagonist effect at GABAC receptors (human ρ1 GABAC receptors),inhibition of [^3H]GABA uptake (hBGT-1),inhibition of [^3H]GABA uptake (hGAT-1),inhibition of [^3H]GABA uptake (hGAT-2),inhibition of [^3H]GABA uptake (hGAT-3),inhibition of [^3H]GABA uptake (cortical neurons),inhibition of [^3H]GABA uptake (cortical astrocytes),inhibition of the reuptake of GABA (reuptake of GABA),inhibition of radioligand binding at GABAB receptors (GABAB receptor [1]),IC50 (GABAA receptor; rat brain synaptic membranes) [µM],IC50 (GABAB receptor [2]) [µM]
"Cl.N[C@H]1C[C@@H](C(=O)O)CC1=C(F)F [(1S,3S)-3-amino-4-difluoromethylenyl-1-cyclopentanoic acid hydrochloride salt]",no inhibition of binding was observed; also recorded: nor does it bind,no effect as an agonist or antagonist,does not inhibit,does not inhibit,does not inhibit,does not inhibit,does not inhibit,does not inhibit,does not inhibit the reuptake of GABA,no inhibition of binding was observed,,
"N[C@H]1C[C@@H](C(=O)O)CC1=C(F)F [(1S,3S)-3-amino-4-difluoromethylenyl-1-cyclopentanoic acid]",,,,,,,,,,,> 100,> 100
